Structures can show the parent of a compound that is named as a salt.
Key:
Assay type in all cases: biochemical
ALK = assay: In vitro transcription-translation (IVTT) assay, ALK reporter; details: HeLa S3 lysate, sfGFP/mCherry ratio, 2 hrs at 30° C.
Description: All reporter constructs have been cloned into the pT7CFE1-CHis plasmid (ThermoFisher #88860) using Gibson assembly procedures (NEB #E2611L). The parental pT7CFE1-CHis plasmid contains an EMCV IRES at the 5′UTR for translation initiation, a multiple-cloning site (MCS) for gene insertion, an optional C-terminal His-epitope tag, and polyA sequence in the 3′UTR to regulate mRNA stability. All reporters are designed to be inserted at the MCS to include a red fluorescent protein (mCherry), P2A self-cleaving peptide which releases the preceding mCherry protein product, and a fusion open reading frame containing a 3×FLAG epitope, a peptide sequence of interest (TEST), and green fluorescent protein (sfGFP).
Construct Plasmid Preparation: All plasmids are isolated from MACH1 cells (ThermoFisher) grown overnight in ampicillin-containing luria broth, and purified using ZymoPure Express Plasmid Midiprep Kit (Zymo Research). Constructs are sequenced verified and diluted to a working concentration of 110 ng/μL.
HeLa S3 Lysate Preparation: HeLa S3 cell pellets are acquired from Ipracell/Ipratech (Belgium) and shipped as 4 mL frozen cell pellets on dry ice for storage at −80° C. until use. The procedure for lysate preparation is as follows. Prepare 1× Lysis Buffer, cold and stored on ice:
Each preparation takes 8 cell pellets (4 ml packed volume each, approximately 1.0×10^9 cells per pellet). Thaw cell pellets from −80° C. on ice for 90 mins. Lay pellets horizontally on top of the ice and rotate every 30 mins to ensure even thawing. Once thawed, add 4 mL of cold lysis buffer to each pellet, and using a serological pipet, gently pipet up and down to break up clumps. Incubate resuspended cells in ice for an additional 30 mins (plunged into ice). During 30 min incubation, rinse and RNase-zap (Ambion) glass dounces (use loose pestle “A”), gently dry and place on ice until needed. Prepare RNase-free Eppendorf tubes for spinning and for batch storage. Add batch labels to 1.5-1.7 mL RNase-free microcentrifuge tubes (labeling scheme below). Each batch will have an extra 1.5-1.7 mL RNase-free microcentrifuge tube for 40 μL of lysate, label the top of this tube (labeling scheme below). After 30 min incubation, transfer all 8 mL of cell pellet to dounce. Cell lysis is complete after douncing 100 times. Aliquot cell lysis into 1.5-1.7 mL temporary-microcentrifuge tubes. Place tubes in centrifuge with “fins” out, and spin at 1,200×g for 5 mins. After the first spin use a 1 mL pipet to resuspend each tube and repeat spin. This acts as an additional lysis step, is more vigorous and increases lysate yield. During second spin get liquid N2 and a fresh conical tube on ice. After spin is complete, transfer supernatant (lysate) from microcentrifuge tubes into the 50 mL conical tube and keep on ice. Repeat steps 10-14 for all other cell pellets until completed. Once all cell lysate has been transferred to the 50 mL conical tube pipet to mix so the solution is homogenous. Transfer 1 mL of lysate into batch-labeled microcentrifuge tubes and flash freeze in liquid nitrogen. Be sure to pipet up and down to mix throughout transfer step. Place all tubes in the […] for long-term storage.
In vitro transcription-translation assay setup: Each assay includes a master mix containing lysate and shared components, a 96-well plate containing compound titrations for testing, a 96-well DNA plate with reporter constructs to be tested, 96-well skirted PCR plates, and 96-well flat-bottom, black, fluorescent assay plates. […]

MYC = assay: In vitro transcription-translation (IVTT) assay, MYC reporter; details: HeLa S3 lysate, 2 hrs at 30° C.
Outline: (§1)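 Reporter: mCherry, P2A, then 3×FLAG-target peptide-sfGFP fusion, IRES-initiated; HeLa S3 lysate IVTT; cpd dilutions 30 μM−0.1 μM half-log in 100% DMSO (dilution-plate conc); DNA added last; 2 h, 30° C; PBS quench.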

CCNTB1 = assay: In vitro transcription-translation (IVTT) assay, CCNTB1 reporter; details: HeLa S3 lysate, 2 hrs at 30° C.
Outline: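 HeLa S3 lysate-based coupled transcription-translation reactions with reporter plasmids, compounds in half-log dilutions (30 μM−0.1 μM, in DMSO), 2 h at 30° C. sfGFP/mCherry ratio, corrected for no-DNA background, normalized to no-drug control and fitted for IC50.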

CCND1 = assay: In vitro transcription-translation (IVTT) assay, CCND1 reporter; details: IVTT, HeLa S3 lysate, 2 hrs at 30° C.
Outline: as §1

MCL-1 = assay: In vitro transcription-translation (IVTT) assay, MCL-1 reporter; details: IVTT, HeLa S3 lysate, 2 hrs at 30° C.; read-out: MCL1 IC50
Outline: as §1

[1] = IVTT assay, MYC reporter, normalized sfGFP/mCherry ratio, half-log dilutions 30 μM-0.1 μM

| Compound | IC50 (ALK) | IC50 (MYC; sfGFP/mCherry ratio) | IC50 (CCNTB1) | IC50 (CCND1) | IC50 (MCL-1) | IC50 (MYC; [1]) |
| --- | --- | --- | --- | --- | --- | --- |
| COc1ccc(C[C@H]2NC[C@H](O)[C@H]2OC(=O)Nc2nc3ccccc3[nH]2)cc1 [V187754, (2R,3S,4S)-4-hydroxy-2-[(4-methoxyphenyl)methyl]pyrrolidin-3-yl N-(1H-1,3-benzodiazol-2-yl)carbamate] | < 10 µM | – | – | – | – | – |
| CCN(CC)CCNC(=O)O[C@@H]1[C@@H](O)CN[C@@H]1Cc1ccc(OC)cc1 [V187384, (2R,3S,4S)-4-hydroxy-2-[(4-methoxyphenyl)methyl]pyrrolidin-3-yl N-[2-(diethylamino)ethyl]carbamate] | 10 to 20 µM | > 30 µM | – | – | – | – |
| COc1ccc(C[C@H]2NC[C@H](O)[C@H]2OC(=O)NCCN2CC[C@H](O)C2)cc1 [V187576, (2R,3S,4S)-4-hydroxy-2-[(4-methoxyphenyl)methyl]pyrrolidin-3-yl N-{2-[(3S)-3-hydroxypyrrolidin-1-yl]ethyl}carbamate trifluoroacetic acid salt] | 10 to 20 µM | < 10 µM | – | – | – | – |
| COc1ccc(C[C@H]2NC[C@H](O)[C@H]2OC(=O)NCCN2CC(C)(O)C2)cc1 [V187580, (2R,3S,4S)-4-hydroxy-2-[(4-methoxyphenyl)methyl]pyrrolidin-3-yl N-[2-(3-hydroxy-3-methylazetidin-1-yl)ethyl]carbamate; trifluoroacetic acid] | 10 to 20 µM | > 30 µM | – | – | – | – |
| COc1ccc(C[C@H]2NC[C@H](O)[C@H]2OC(=O)NCc2cn(-c3cc4ccc(O)cc4oc3=O)nn2)cc1 [V187692, (2R,3S,4S)-4-hydroxy-2-[(4-methoxyphenyl)methyl]pyrrolidin-3-yl N-{[1-(7-hydroxy-2-oxochromen-3-yl)-1,2,3-triazol-4-yl]methyl}carbamate; trifluoroacetic acid] | > 30 µM | > 30 µM | – | – | – | – |
| COc1ccc(C[C@H]2NC[C@H](O)[C@H]2OC(=O)Nc2nc3ccccc3s2)cc1 [V187753, (2R,3S,4S)-4-hydroxy-2-[(4-methoxyphenyl)methyl]pyrrolidin-3-yl N-(1,3-benzothiazol-2-yl)carbamate; trifluoroacetic acid] | > 30 µM | > 30 µM | – | – | – | – |
| COc1ccc(C[C@H]2NC[C@H](O)[C@H]2OC(=O)Nc2nccs2)cc1 [V187752, (2R,3S,4S)-4-hydroxy-2-[(4-methoxyphenyl)methyl]pyrrolidin-3-yl N-(1,3-thiazol-2-yl)carbamate Hydrochloride] | < 10 µM | 10 to 20 µM | – | – | – | – |
| COc1ccc(C[C@H]2NC[C@H](O)[C@H]2OC(=O)NCCN2CCC3(CCC3)C2)cc1 [V187641, (2R,3S,4S)-4-hydroxy-2-[(4-methoxyphenyl)methyl]pyrrolidin-3-yl N-(2-{6-azaspiro[3.4]octan-6-yl}ethyl)carbamate] | 10 to 20 µM | – | – | – | – | – |
| CNC(=O)O[C@@H]1[C@@H](O)CN[C@@H]1Cc1ccc(OC)cc1 [V187583, (2R,3S,4S)-4-hydroxy-2-[(4-methoxyphenyl)methyl]pyrrolidin-3-yl N-methylcarbamate; trifluoroacetic acid] | < 10 µM | – | – | – | – | – |
| CCCOc1ccc(C[C@H]2NC[C@H](O)[C@H]2OC(=O)NCc2ccccc2)cc1 [V188376, (2R,3S,4S)-4-hydroxy-2-[(4-propoxyphenyl)methyl]pyrrolidin-3-yl N-benzylcarbamate] | – | – | < 10 µM | 10 to 20 µM | < 10 µM | < 10 µM |
| COc1ccc(C[C@H]2NC[C@H](O)[C@H]2OC(=O)NCCc2ccc3c(c2)CNC3)cc1 [V188344, (2R,3S,4S)-4-hydroxy-2-[(4-methoxyphenyl)methyl]pyrrolidin-3-yl N-[2-(2,3-dihydro-1H-isoindol-5-yl)ethyl]carbamate] | – | – | < 10 µM | < 10 µM | < 10 µM | < 10 µM |
| COc1ccc(C[C@H]2NC[C@H](O)[C@H]2OC(=O)NCc2ccccc2F)cc1 [V190520, (2R,3S,4S)-4-hydroxy-2-[(4-methoxyphenyl)methyl]pyrrolidin-3-yl N-[(2-fluorophenyl)methyl]carbamate] | – | – | < 10 µM | 10 to 20 µM | < 10 µM | < 10 µM |
| COc1ccc(C[C@H]2NC[C@H](O)[C@H]2OC(=O)NCC2COC2)cc1 [V188299, (2R,3S,4S)-4-hydroxy-2-[(4-methoxyphenyl)methyl]pyrrolidin-3-yl N-(oxetan-3-ylmethyl)carbamate] | – | – | < 10 µM | 10 to 20 µM | < 10 µM | < 10 µM |
| O=C(NCc1cccc(F)c1)O[C@@H]1[C@@H](O)CN[C@@H]1Cc1ccc(F)cc1 [V190506, (2R,3S,4S)-2-[(4-fluorophenyl)methyl]-4-hydroxypyrrolidin-3-yl N-[(3-fluorophenyl)methyl]carbamate] | – | – | < 10 µM | 10 to 20 µM | < 10 µM | < 10 µM |
| COc1ccc(C[C@H]2NC[C@H](O)[C@H]2OC(=O)NCc2ccnc(F)c2)cc1 [V190522, (2R,3S,4S)-4-hydroxy-2-[(4-methoxyphenyl)methyl]pyrrolidin-3-yl N-[(2-fluoropyridin-4-yl)methyl]carbamate] | – | – | < 10 µM | < 10 µM | < 10 µM | < 10 µM |
| O=C(NCC[C@@H]1CCCN1)O[C@@H]1[C@@H](O)CN[C@@H]1Cc1ccc(-c2ccccc2)cc1 [V190505, (2R,3S,4S)-2-{[1,1′-biphenyl]-4-ylmethyl}-4-hydroxypyrrolidin-3-yl N-{2-[(2S)-pyrrolidin-2-yl]ethyl}carbamate] | – | – | < 10 µM | < 10 µM | < 10 µM | < 10 µM |
| COc1ccc(C[C@H]2NC[C@H](O)[C@H]2OC(=O)NCCn2nc(C)cc2C)cc1 [V190415, (2R,3S,4S)-4-hydroxy-2-[(4-methoxyphenyl)methyl]pyrrolidin-3-yl N-[2-(3,5-dimethylpyrazol-1-yl)ethyl]carbamate] | – | – | > 30 µM | > 30 µM | > 30 µM | > 30 µM |
| O=C(NCC[C@@H]1CCCN1)O[C@@H]1[C@@H](O)CN[C@@H]1Cc1ccc(F)cc1 [V191886, (2R,3S,4S)-2-[(4-fluorophenyl)methyl]-4-hydroxypyrrolidin-3-yl N-{2-[(2S)-pyrrolidin-2-yl]ethyl}carbamate] | – | – | < 10 µM | < 10 µM | < 10 µM | < 10 µM |
| O=C(NCc1cccc(F)c1)O[C@@H]1[C@@H](O)CN[C@@H]1Cc1ccc(-n2ccnc2)cc1 [V190515, (2R,3S,4S)-4-hydroxy-2-{[4-(imidazol-1-yl)phenyl]methyl}pyrrolidin-3-yl N-[(3-fluorophenyl)methyl]carbamate] | – | – | < 10 µM | < 10 µM | < 10 µM | < 10 µM |
| COc1ccc(C[C@H]2NC[C@H](O)[C@H]2OC(=O)NCC[C@H]2CCCN2)cc1 [V188342, (2R,3S,4S)-4-hydroxy-2-[(4-methoxyphenyl)methyl]pyrrolidin-3-yl N-{2-[(2R)-pyrrolidin-2-yl]ethyl}carbamate] | – | – | < 10 µM | 20 to 30 µM | 10 to 20 µM | < 10 µM |
| COc1ccc(C[C@H]2NC[C@H](O)[C@H]2OC(=O)NCc2ccc(C#N)cc2)cc1 [V188377, (2R,3S,4S)-4-hydroxy-2-[(4-methoxyphenyl)methyl]pyrrolidin-3-yl N-[(4-cyanophenyl)methyl]carbamate] | – | – | < 10 µM | < 10 µM | < 10 µM | < 10 µM |
